Holding throughout (format): cell-based
Conditions in all cases: 16 h treatment, EGFR degradation by HTRF
A general note: In TR-FRET formats the signal depends on donor and acceptor labels being close together.

One assay concerns the target T1, EGFR LTC (Homo sapiens, UniProt P00533, C797S/L858R/T790M).
T1 construct: expressed in transfected cells; host or cells: BaF3
As to the kind of experiment: Cell Degradation 3: EGFR degradation in BaF3 cells (LTC), HTRF assay. In outline: (§1)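 BaF3 cells expressing EGFR (LTC triple mutant C797S/L858R/T790M or DTC) exposed to compounds for 16 h, 8 doses from 4-fold dilution, 0.2% DMSO. Residual EGFR quantified by HTRF in lysates (triple mutant lysate diluted 1:1); DC50 from four-parameter logistic fit.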

The next assay concerns EGFR DTC. As to the kind of experiment: Cell Degradation 3: EGFR degradation in BaF3 cells (DTC), HTRF assay. In short, it runs like this:
as §1

For assay [1], the target named is T2, EGFR (Homo sapiens, UniProt P00533, L858R/T790M).
T2 construct: endogenous in cells; host or cells: H1975
As to the kind of experiment: Cell Degradation 1: EGFR degradation in H1975 cells, HTRF assay. In short, it runs like this:
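H1975 cells treated with compound for 16 h, lysed 1 h at room temperature. EGFR measured by HTRF after overnight antibody incubation (665/620 nm). DC50 from four-parameter logistic fit of percent inhibition against concentration.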

Assay [2] deals with T3, EGFR (Homo sapiens, UniProt P00533, DEL746-750).
T3 construct: endogenous in cells; host or cells: HCC827
As to the kind of experiment: Cell Degradation 2: EGFR degradation in HCC827 cells, HTRF assay. In short, it runs like this:
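Compound-treated HCC827 cells were lysed after 16 h and EGFR measured by HTRF (337 nm excitation, 665/620 nm emission) after overnight antibody incubation at room temperature. DC50 came from a four-parameter fit of percent inhibition against compound concentration.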

Usually DC50 stands for the concentration at which degradation of the target reaches its halfway point. Read a high DC50 as a less potent degrader.

T3 sequence (P00533 with tags, fused parts or gaps DEL746-750): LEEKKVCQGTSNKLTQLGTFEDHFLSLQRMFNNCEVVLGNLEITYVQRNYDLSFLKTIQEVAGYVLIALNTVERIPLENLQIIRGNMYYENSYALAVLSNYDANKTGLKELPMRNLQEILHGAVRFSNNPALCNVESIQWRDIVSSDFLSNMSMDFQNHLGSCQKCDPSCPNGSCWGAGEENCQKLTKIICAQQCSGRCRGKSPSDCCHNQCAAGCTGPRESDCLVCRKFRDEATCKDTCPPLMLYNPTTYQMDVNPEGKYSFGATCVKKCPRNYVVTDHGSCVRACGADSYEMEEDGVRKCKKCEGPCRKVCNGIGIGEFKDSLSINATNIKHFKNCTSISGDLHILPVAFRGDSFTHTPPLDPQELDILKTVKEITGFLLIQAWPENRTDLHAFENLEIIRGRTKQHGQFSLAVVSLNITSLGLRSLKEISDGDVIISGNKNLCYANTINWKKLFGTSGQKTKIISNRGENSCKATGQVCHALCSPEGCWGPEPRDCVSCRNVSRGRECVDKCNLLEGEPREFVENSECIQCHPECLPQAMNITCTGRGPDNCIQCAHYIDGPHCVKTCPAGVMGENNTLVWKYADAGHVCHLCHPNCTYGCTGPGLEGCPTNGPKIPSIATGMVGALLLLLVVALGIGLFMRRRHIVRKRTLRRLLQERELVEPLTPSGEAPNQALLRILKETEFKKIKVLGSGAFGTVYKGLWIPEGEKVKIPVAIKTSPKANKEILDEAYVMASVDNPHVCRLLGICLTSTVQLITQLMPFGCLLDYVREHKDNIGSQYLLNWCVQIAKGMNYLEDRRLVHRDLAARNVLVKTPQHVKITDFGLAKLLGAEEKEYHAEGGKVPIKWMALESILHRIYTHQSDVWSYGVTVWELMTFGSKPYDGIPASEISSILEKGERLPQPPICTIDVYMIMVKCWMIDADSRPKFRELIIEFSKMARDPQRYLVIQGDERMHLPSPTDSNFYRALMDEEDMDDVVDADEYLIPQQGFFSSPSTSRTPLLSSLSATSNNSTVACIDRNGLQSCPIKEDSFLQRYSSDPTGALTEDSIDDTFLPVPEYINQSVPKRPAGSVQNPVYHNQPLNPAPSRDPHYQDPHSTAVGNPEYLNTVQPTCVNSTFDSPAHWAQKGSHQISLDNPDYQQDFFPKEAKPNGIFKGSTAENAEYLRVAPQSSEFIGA
T3 sequence (Q96SW2 whole entry partner): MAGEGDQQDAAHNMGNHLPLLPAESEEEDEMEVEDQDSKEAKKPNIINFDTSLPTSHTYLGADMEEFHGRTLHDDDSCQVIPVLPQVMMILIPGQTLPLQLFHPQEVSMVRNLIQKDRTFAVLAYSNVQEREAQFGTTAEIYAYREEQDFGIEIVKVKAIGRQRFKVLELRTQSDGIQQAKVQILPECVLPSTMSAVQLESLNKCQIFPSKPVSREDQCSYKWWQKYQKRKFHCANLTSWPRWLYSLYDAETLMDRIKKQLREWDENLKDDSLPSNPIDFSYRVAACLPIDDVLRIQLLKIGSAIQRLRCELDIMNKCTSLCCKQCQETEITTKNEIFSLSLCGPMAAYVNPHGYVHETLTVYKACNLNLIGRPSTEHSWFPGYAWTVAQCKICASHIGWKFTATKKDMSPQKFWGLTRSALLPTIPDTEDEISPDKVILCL
T1 sequence (P00533 25-1210 T790M/C797S/L858R): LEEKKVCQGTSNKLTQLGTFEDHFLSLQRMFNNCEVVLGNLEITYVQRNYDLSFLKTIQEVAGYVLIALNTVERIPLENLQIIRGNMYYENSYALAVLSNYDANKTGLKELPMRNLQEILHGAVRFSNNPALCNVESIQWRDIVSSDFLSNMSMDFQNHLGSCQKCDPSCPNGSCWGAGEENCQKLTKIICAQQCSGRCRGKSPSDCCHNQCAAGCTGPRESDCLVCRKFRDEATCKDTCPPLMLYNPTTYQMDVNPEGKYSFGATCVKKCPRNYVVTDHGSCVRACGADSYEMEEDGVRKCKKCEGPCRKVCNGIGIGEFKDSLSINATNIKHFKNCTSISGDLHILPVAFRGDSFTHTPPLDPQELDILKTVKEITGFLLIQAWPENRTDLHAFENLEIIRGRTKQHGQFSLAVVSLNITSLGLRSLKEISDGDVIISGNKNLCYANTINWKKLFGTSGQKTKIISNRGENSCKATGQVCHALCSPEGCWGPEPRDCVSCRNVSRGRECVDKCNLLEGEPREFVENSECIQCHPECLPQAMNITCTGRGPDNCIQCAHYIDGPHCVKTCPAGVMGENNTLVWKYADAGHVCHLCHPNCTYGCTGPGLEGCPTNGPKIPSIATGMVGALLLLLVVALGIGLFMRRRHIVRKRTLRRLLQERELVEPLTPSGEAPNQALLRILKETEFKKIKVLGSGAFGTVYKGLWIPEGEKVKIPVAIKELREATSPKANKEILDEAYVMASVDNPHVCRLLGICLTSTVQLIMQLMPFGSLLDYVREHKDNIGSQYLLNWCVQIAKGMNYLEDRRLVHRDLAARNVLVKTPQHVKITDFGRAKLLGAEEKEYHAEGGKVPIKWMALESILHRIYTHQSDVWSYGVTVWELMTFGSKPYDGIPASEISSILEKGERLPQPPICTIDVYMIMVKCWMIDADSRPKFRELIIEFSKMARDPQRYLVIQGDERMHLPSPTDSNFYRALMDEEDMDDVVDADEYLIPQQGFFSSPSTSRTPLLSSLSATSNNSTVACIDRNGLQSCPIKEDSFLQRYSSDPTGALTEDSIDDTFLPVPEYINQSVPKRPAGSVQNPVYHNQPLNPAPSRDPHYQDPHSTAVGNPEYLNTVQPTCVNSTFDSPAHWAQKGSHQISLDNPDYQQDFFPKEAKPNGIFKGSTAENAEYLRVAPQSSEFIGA
T2 sequence (P00533 25-1210 T790M/L858R): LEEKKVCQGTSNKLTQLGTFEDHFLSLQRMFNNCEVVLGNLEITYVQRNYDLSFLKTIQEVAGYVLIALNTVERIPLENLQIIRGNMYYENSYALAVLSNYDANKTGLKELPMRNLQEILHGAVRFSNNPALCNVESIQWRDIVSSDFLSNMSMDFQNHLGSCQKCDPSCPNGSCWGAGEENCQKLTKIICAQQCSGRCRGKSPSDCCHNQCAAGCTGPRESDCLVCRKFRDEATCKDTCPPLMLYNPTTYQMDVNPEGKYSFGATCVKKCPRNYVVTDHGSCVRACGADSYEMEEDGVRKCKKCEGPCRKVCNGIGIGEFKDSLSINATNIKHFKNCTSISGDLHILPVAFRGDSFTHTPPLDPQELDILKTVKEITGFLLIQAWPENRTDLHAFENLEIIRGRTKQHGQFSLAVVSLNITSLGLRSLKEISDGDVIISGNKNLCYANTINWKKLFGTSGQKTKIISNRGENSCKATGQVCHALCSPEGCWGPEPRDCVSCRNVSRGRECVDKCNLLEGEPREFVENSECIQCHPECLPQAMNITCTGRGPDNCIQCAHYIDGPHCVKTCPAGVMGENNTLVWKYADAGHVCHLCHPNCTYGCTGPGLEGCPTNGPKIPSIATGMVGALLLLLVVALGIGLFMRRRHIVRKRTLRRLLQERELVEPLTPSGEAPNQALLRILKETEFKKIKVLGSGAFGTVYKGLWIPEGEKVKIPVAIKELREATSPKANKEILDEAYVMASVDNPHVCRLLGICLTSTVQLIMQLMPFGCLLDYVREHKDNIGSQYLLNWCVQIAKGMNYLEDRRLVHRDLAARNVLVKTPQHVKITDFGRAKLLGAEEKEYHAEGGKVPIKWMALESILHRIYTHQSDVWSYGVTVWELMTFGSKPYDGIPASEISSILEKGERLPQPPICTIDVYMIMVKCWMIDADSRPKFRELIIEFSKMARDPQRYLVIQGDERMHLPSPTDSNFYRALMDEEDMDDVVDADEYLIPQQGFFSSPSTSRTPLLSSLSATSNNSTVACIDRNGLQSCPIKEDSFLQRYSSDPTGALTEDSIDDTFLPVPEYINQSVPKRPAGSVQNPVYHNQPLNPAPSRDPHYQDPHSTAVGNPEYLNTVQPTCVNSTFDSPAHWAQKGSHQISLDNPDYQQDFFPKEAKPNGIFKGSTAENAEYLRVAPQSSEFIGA

As to `COc1cc(N2CCC(N3CCN(C[C@@H]4CCN(c5ccc6c(c5)CN(C5CCC(=O)NC5=O)C6=O)C4)CC3)CC2)c(C)cc1Nc1ncc(Br)c(Nc2cccc3c2N(S(C)(=O)=O)CC3)n1` (stereo partly drawn) [Example 154, 3-(5-((S)-3-((4-(1-(4-((5-bromo-4-((1-(methylsulfonyl)indolin-7-yl)amino)pyrimidin-2-yl)amino)-5-methoxy-2-methylphenyl)piperidin-4-yl)piperazin-1-yl)methyl)pyrrolidin-1-yl)-1-oxoisoindolin-2-yl)piperidine-2,6-dione], the DC50 at EGFR LTC is 13 nM; in the assay on EGFR DTC, 11 nM; on EGFR [1], 16 nM; at EGFR [2] it was 6 nM.

With `COc1cc(N2CCC(N3CCN(C[C@H]4C[C@H](c5ccc6c(c5)CN(C5CCC(=O)NC5=O)C6=O)C4)CC3)CC2)c(C)cc1Nc1ncc(Br)c(Nc2cccc3c2N(S(C)(=O)=O)CC3)n1` (stereo partly shown) [Example 159, 3-(5-((1r,3r)-3-((4-(1-(4-((5-bromo-4-((1-(methylsulfonyl)indolin-7-yl)amino)pyrimidin-2-yl)amino)-5-methoxy-2-methylphenyl)piperidin-4-yl)piperazin-1-yl)methyl)cyclobutyl)-1-oxoisoindolin-2-yl)piperidine-2,6-dione], the DC50 on EGFR LTC stood at 19 nM; with EGFR DTC it was 11 nM; on EGFR [1], 3 nM; at EGFR [2] it was 2 nM.

As to `COc1cc(N2CCC(N3CCN(CCc4cc(F)c(C5CCC(=O)NC5=O)c(F)c4)CC3)CC2)c(C)cc1Nc1nc(Nc2cccc3c2N(S(C)(=O)=O)CC3)c2cc[nH]c2n1` (stereo not shown) [Example 163, 3-(2,6-difluoro-4-(2-(4-(1-(5-methoxy-2-methyl-4-((4-((1-(methylsulfonyl)indolin-7-yl)amino)-7H-pyrrolo[2,3-d]pyrimidin-2-yl)amino)phenyl)piperidin-4-yl)piperazin-1-yl)ethyl)phenyl)piperidine-2,6-dione], the DC50 at EGFR LTC turned out to be 40 nM; with EGFR DTC, 49 nM; on EGFR [1], 3 nM; on EGFR [2] it was 20 nM.

With `COc1cc(N2CCC(N3CCN(C[C@H]4CCN(c5ccc6c(c5)CN(C5CCC(=O)NC5=O)C6=O)C4)CC3)CC2)c(C)cc1Nc1ncc(Br)c(Nc2cccc3c2N(S(C)(=O)=O)CC3)n1` (stereo partly drawn) [Example 168, 3-(5-((R)-3-((4-(1-(4-((5-bromo-4-((1-(methylsulfonyl)indolin-7-yl)amino)pyrimidin-2-yl)amino)-5-methoxy-2-methylphenyl)piperidin-4-yl)piperazin-1-yl)methyl)pyrrolidin-1-yl)-1-oxoisoindolin-2-yl)piperidine-2,6-dione], the DC50 stood at 25 nM at EGFR LTC, 14 nM with EGFR DTC, 7 nM on EGFR [1] and 2 nM on EGFR [2].

For the origin of these results see patent US12643903B2, “Bifunctional compounds for degradation of EGFR and related methods of use” (BeiGene, Ltd., priority 2020, dated 2026).
